Measured values from patent publication US11578084B2, “Condensed ring compounds having dopamine D3 receptor antagonistic effect” (Shionogi & Co., Ltd., priority 2018, dated 2023).
pKi: −log10 of the molar value. Like-named read-outs stand apart in the source and are kept apart here.

Key:
[1] = target: human ether-a-go-go related gene (hERG) channel (Homo sapiens (Human), UniProt Q12809); experiment: hERG test (whole cell patch clamp, IKr); format: cell-based; settings: 3 μM, CHO cells expressing hERG, tail peak current
Sequence of human ether-a-go-go related gene (hERG) channel (Q12809 whole entry): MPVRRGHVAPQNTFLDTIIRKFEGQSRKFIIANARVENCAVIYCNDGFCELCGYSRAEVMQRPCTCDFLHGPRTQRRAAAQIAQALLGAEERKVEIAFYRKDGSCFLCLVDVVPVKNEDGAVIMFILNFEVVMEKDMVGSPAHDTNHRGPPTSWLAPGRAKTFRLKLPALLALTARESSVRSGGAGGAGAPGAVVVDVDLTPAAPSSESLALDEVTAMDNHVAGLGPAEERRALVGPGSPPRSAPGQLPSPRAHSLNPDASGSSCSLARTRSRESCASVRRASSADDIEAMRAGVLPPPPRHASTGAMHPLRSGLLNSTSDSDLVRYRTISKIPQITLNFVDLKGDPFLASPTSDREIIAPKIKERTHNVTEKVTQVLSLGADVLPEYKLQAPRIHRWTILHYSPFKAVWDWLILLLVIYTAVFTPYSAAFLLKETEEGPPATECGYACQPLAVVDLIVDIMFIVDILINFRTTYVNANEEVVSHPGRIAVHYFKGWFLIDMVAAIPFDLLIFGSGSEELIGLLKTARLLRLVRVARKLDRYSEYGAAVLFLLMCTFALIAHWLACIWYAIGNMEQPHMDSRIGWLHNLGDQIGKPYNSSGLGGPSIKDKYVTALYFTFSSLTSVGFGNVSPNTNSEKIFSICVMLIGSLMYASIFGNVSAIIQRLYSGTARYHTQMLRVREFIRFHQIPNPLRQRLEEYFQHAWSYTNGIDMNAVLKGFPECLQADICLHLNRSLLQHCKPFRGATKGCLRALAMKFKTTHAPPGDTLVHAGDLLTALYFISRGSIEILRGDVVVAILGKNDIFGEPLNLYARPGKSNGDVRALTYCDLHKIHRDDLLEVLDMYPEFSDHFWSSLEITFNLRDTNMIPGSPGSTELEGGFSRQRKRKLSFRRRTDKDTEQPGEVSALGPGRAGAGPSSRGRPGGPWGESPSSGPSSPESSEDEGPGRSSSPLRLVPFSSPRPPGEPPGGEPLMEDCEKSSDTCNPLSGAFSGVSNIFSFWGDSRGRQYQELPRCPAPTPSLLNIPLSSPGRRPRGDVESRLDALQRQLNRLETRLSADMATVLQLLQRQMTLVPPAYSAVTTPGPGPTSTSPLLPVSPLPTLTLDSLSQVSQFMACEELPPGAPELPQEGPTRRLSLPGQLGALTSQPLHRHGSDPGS

[2] = target: human recombinant dopamine D2 receptor (Homo sapiens (Human), UniProt P14416); experiment: Test of binding inhibition for dopamine D2 receptor ([3H]-Methylspiperone SPA); settings: Jump-In HEK cell membranes, read-out: hD2_Ki
Sequence of human recombinant dopamine D2 receptor (P14416 whole entry): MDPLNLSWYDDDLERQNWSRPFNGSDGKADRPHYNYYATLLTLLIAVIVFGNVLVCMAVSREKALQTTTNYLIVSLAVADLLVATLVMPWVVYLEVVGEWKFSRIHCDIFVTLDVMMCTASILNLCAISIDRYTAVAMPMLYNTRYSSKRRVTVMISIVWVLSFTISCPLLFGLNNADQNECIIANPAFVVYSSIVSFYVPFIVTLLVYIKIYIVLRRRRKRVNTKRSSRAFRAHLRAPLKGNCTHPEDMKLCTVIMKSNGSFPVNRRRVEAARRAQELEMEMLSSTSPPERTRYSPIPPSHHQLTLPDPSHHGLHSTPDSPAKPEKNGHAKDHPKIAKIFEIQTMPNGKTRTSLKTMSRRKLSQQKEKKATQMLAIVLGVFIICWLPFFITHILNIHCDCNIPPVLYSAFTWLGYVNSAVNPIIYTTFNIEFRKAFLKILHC
Outline: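 Scintillation proximity competition binding of [3H]-Methylspiperone to Jump-In HEK membranes expressing human D2 (2 μg protein/well) on WGA SPA beads (0.2 mg/well), 120 min at 25° C.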

[3] = target: human recombinant dopamine D3 receptor (Homo sapiens (Human), UniProt P35462); experiment: Test of binding inhibition for dopamine D3 receptor ([3H]-Methylspiperone SPA); settings: Jump-In HEK cell membranes, 2 nM [3H]-Methylspiperone, 120 min at 25° C.; read-out: hD3_Ki
Sequence of human recombinant dopamine D3 receptor (P35462 whole entry): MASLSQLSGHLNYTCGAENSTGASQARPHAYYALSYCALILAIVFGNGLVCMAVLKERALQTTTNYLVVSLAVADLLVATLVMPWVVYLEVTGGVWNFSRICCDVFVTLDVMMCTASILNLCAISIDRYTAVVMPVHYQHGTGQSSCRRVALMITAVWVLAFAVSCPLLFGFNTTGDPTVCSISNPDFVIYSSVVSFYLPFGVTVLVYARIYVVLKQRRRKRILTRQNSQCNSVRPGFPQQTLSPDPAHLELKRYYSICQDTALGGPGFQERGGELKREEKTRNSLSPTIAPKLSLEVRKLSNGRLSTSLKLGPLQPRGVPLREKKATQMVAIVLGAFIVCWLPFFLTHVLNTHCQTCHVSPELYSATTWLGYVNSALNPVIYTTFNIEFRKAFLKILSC
Outline: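 SPA radioligand binding on Jump-In HEK membranes expressing human D3 receptor (4 µg/well) with 2 nM [3H]-methylspiperone (final), incubated 120 min at 25 °C. Non-specific binding defined with 10 µM butaclamol. Percent inhibition computed against total and non-specific binding; Ki from dose-response curves.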

[4] = target: hERG channel (IKr) (Homo sapiens (Human), UniProt Q12809); experiment: hERG test (whole cell patch clamp, IKr); format: cell-based; settings: human, CHO cells expressing hERG channel, pH 7.4, 3 μM, tail peak current
Sequence of hERG channel (IKr) (Q12809 whole entry): as the sequence (Q12809 whole entry) above

[5] = target: human MDR1-expressing cells (Homo sapiens (Human), UniProt P08183); experiment: P-gp substrate test (Transwell, MDR1-expressing cells vs parent cells); format: in vitro ADME; settings: efflux ratio of MDR1-expressing cells compared with parent cells
Sequence of human MDR1-expressing cells (P08183 whole entry): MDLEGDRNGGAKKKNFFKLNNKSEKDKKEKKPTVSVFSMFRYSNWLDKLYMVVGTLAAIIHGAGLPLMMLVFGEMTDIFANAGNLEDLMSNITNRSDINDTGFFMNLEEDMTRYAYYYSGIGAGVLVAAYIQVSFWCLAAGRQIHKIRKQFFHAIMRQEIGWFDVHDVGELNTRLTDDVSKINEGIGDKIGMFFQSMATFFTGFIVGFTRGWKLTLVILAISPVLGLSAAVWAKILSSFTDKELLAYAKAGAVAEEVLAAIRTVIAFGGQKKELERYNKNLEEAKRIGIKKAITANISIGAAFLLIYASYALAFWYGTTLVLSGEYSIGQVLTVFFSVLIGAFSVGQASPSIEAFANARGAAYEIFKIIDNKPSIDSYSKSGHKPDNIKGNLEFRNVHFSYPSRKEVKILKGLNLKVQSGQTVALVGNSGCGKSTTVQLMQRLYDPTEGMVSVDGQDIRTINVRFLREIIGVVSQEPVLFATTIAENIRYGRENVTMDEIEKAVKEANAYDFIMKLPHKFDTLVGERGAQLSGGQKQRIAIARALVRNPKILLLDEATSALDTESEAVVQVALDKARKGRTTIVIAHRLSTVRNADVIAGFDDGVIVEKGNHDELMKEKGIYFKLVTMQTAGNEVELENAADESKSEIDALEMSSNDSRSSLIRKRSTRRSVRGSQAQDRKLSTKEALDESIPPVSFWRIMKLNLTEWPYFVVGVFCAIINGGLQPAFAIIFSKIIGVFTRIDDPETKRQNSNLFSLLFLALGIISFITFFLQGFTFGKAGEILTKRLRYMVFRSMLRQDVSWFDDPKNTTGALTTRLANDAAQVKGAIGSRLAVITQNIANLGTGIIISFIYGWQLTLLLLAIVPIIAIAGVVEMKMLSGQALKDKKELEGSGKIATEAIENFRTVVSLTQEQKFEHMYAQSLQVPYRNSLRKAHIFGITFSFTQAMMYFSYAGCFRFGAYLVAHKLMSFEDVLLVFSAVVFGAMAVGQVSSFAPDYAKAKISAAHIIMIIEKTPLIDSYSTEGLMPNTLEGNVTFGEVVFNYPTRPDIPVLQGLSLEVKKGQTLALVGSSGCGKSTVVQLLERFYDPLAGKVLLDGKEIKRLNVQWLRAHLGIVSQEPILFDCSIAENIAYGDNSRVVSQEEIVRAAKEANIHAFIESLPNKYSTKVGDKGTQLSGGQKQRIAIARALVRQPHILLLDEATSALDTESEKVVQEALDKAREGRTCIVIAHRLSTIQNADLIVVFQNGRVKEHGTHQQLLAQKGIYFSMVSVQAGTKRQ
Protocol: Test Example 14: P-Gp Substrate Test The compound of the present invention was added to one side of Transwell (registered trademark, CORNING) where human MDR1-expressing cells or parent cells have been monolayer-cultured. The cells were reacted for a constant time. The membrane permeability coefficients from the apical side toward the basolateral side (A→B) and from the basolateral side toward the apical side (B→A) were calculated for the MDR1-expressing cells or the parent cells, and the efflux ratio (ER; ratio of the membrane permeability coefficients of B→A and A→B) values of the MDR1-expressing cells and the parent cells were calculated. The efflux ratio (ER values) of the MDR1-expressing cells and the parent cells were compared to confirm whether or not the compound of the present invention would be a P-gp substrate.

[6] = Solubility test (1% DMSO addition, JP-1 fluid or JP-2 fluid); format: physicochemical; settings: 25 °C, kinetic from dmso stock
Protocol: Test Example 11: Solubility Test The solubility of the compound of the present invention was determined under 1% DMSO addition conditions. A 10 mmol/L solution of the compound was prepared with DMSO. 2 μL of the solution of the compound of the present invention was respectively added to 198 μL of JP-1 fluid or JP-2 fluid, or 6 μL of the solution of the compound of the present invention was respectively added to 594 μL of JP-1 fluid or JP-2 fluid. The mixture was left standing for 16 hours at 25° C. (condition 1) or shaking at room temperature for 3 hours (condition 2), and the mixture was vacuum-filtered. The filtrates were diluted 10- or 100-fold with methanol/water=1/[…]) or acetonitrile/methanol/water=1/1/[…]/V), and concentrations in the filtrates were measured by the absolute calibration curve method using LC/MS or solid-phase extraction (SPE)/MS. The dilution rate or dilution solvent was changed as necessary. The composition of the JP-1 fluid was as below. Water was added to 2.0 g of sodium chloride and 7.0 mL of hydrochloric acid to reach 1000 mL. The composition of the JP-2 fluid was as below. Composition 1. 3.40 g of potassium dihydrogen phosphate and 3.55 g of anhydrous disodium hydrogen phosphate were dissolved in water to reach 1000 mL. Composition 2. 1 volume of water was added to 1 volume of the solution in which 3.40 g of potassium dihydrogen phosphate and 3.55 g of anhydrous disodium hydrogen phosphate were dissolved in water to reach 1000 mL.

[7] = 1.2 nM [3H]-Methylspiperone, 120 min at 25° C.
[8] = pH 1.2, simulated gastric fluid, JP-1 fluid, read-out: Solubility JP-1
[9] = pH 6.8, aqueous buffer, JP-2 fluid, read-out: Solubility JP-2

Row | SMILES | hERG inhibition(%) at 3 μM [1] | pKi [2, 7] | pKi [3] | inhibition at 3 µM [4] | P-gp ER ratio [5] | pKi ([2]; [3H]-Methylspiperone 1.2 nM) | solubility [6, 8] | solubility [6, 9]
1 | CC(Oc1nc2c(s1)CCN(CC[C@H]1CC[C@H](NC(=O)c3cccc4nn(C)cc34)CC1)CC2)C(F)F (single isomer, unassigned) [Example I-119] | 23.1% | 5.92 | 9.96 |  |  |  |  | 
2 | Cn1ncc(CC(=O)N[C@H]2CC[C@H](CCN3CCc4sc(OCC(C)(F)F)nc4C3)CC2)n1 [Example I-005] |  | 6.14 | 9.20 | 15.3% | 1.5 |  |  | 
3 | Cn1ncc(CC(=O)N[C@H]2CC[C@](F)(CCN3CCc4ccc(OCC(F)F)nc4CC3)CC2)n1 [Example I-031] |  | 6.10 | 9.72 | 23.8% | 1.5 |  |  | 
4 | CCc1ncccc1C(=O)N[C@H]1CC[C@H](CCN2CCc3ccc(OC4CCC4)nc3CC2)CC1 [Example I-088] |  | 5.89 | 9.10 | 32% |  |  |  | 
5 | Cc1ncccc1C(=O)N[C@H]1CC[C@H](CCN2CCc3nc(OCCC(F)(F)F)sc3CC2)CC1 [Example I-099] |  | 5.80 | 9.01 | 29.4% |  |  |  | 
6 | Cc1nnc(CC(=O)N[C@H]2CC[C@H](CCN3CCc4nc(OCCC(F)(F)F)sc4CC3)CC2)o1 [Example I-100] |  | 5.82 | 9.14 | 33.9% |  |  |  | 
7 | Cn1cc(CC(=O)N[C@H]2CC[C@H](CCN3CCc4nc(OCCC(F)(F)F)sc4CC3)CC2)cn1 [Example I-101] |  | 5.66 | 9.52 | 34.9% |  |  |  | 
8 | Cc1ncc(CC(=O)N[C@H]2CC[C@H](CCN3CCc4nc(OCCC(F)(F)F)sc4CC3)CC2)o1 [Example I-102] |  | 6.17 | 9.89 | 32.2% |  |  |  | 
9 | Cn1cc2c(C(=O)N[C@H]3CC[C@H](CCN4CCc5sc(OCC(C)(F)F)nc5C4)CC3)c(F)ccc2n1 [Example I-103] |  | 6.47 | 9.77 | 26% |  |  |  | 
10 | Cn1cc(CC(=O)N[C@H]2CC[C@](F)(CCN3CCc4ccc(OC5CCC5)nc4CC3)CC2)cn1 [Example I-104] |  | < 5.64 | 9.17 | 16.3% |  |  |  | 
11 | Cc1cnc(CC(=O)N[C@H]2CC[C@](F)(CCN3CCc4ccc(OC5CCC5)nc4CC3)CC2)o1 [Example I-105] |  | < 5.64 | 9.02 | 30.1% |  |  |  | 
12 | Cc1nc(CC(=O)N[C@H]2CC[C@H](CCN3CCc4nc(OCC(F)(F)F)sc4CC3)CC2)n(C)n1 [Example I-107] |  | 6.00 | 9.27 | 3.75% |  |  |  | 
13 | CC[C@@H](C)Oc1ccc2c(n1)CCN(CC[C@]1(F)CC[C@@H](NC(=O)Cc3nnc(C)o3)CC1)CC2 [Example I-108] |  | 5.92 | 9.05 | 1.06% |  |  |  | 
14 | CC[C@@H](C)Oc1ccc2c(n1)CCN(CC[C@]1(F)CC[C@@H](NC(=O)Cc3nnc(C)s3)CC1)CC2 [Example I-109] |  | 6.21 | 9.59 | 27% |  |  |  | 
15 | CC[C@@H](C)Oc1ccc2c(n1)CCN(CC[C@H]1CC[C@H](NC(=O)Cc3cnn(C)n3)CC1)CC2 [Example I-111] |  | 5.80 | 9.77 | 14.6% |  |  |  | 
16 | Cn1c(C(=O)N[C@H]2CC[C@](F)(CCN3CCc4nc(OCCC(F)(F)F)sc4CC3)CC2)cccc1=O [Example I-113] |  | < 5.66 | 9.06 | 6.89% |  |  |  | 
17 | Cc1nc(CC(=O)N[C@H]2CC[C@](F)(CCN3CCc4nc(OCCC(F)(F)F)sc4CC3)CC2)no1 [Example I-114] |  | < 5.66 | 9.23 | 29% |  |  |  | 
18 | COC(CN1CCc2sc(OCC(F)(F)F)nc2C1)[C@H]1CC[C@H](NC(=O)c2cccc3nn(C)cc23)CC1 (stereo partly shown) [Example I-186] |  | 6.57 | 9.66 | 16.8% |  |  |  | 
19 | Cn1cc2c(C(=O)NC34CCC(CCN5CCc6nc(OCC(F)(F)F)sc6CC5)(CC3)CC4)cccc2n1 [II-8] |  |  | 10.08 |  |  | 5.80 | > 50 µM | > 50 µM
20 | Cc1ncc(OCC(=O)NC23CCC(CCN4CCc5nc(OCC(F)(F)F)sc5CC4)(CC2)CC3)cn1 [II-9] |  |  | 9.92 |  |  | 6.02 | > 50 µM | > 50 µM
21 | Cn1cc2c(C(=O)NC34CCC(CCN5CCc6nc(OCC(F)(F)F)sc6CC5)(CC3)OC4)cccc2n1 [II-11] |  |  | 9.64 |  |  | < 5.64 | > 50 µM | > 50 µM
22 | Cc1ncc(OCC(=O)NC23CCC(CCN4CCc5nc(OCC(F)(F)F)sc5CC4)(CC2)OC3)cn1 [II-12] |  |  | 9.31 |  |  | 5.82 | > 50 µM | > 50 µM
23 | Cn1ncc(CC(=O)N[C@H]2CC[C@](F)(CCN3CCc4nc(OCC(F)(F)F)sc4CC3)CC2)n1 [I′-37] |  |  | 9.74 | 19.6% |  | 5.80 |  | 
24 | Cn1ncc(CC(=O)N[C@H]2CC[C@H](CCN3CCc4nc(OCC(C)(F)F)sc4CC3)CC2)n1 [I′-38] |  |  | 10.37 | 20.6% |  | 6.00 |  | 
25 | Cn1ncc(CC(=O)N[C@H]2CC[C@](F)(CCN3CCc4nc(OCC(C)(F)F)sc4CC3)CC2)n1 [I′-39] |  |  | 9.31 | 17.3% | 1.9 | 6.02 |  | 
26 | Cn1ncc(CC(=O)N[C@H]2CC[C@](F)(CCN3CCc4nc(OCC(F)F)sc4CC3)CC2)n1 [I′-41] |  |  | 9.31 | 24% |  | 5.72 |  | 
